Measurements as given in patent US20250186627A1, “RADIOLABELED COMPOUNDS TARGETING THE PROSTATE-SPECIFIC MEMBRANE ANTIGEN” (PROVINCIAL HEALTH SERVICES AUTHORITY, priority 2022, published 2025).
*1 amine or outer side, *2 acyl side, *3 side chain or, on linkers, in order; H or OH if unused. Where a SMILES comes first, the peptide text is derived from it. [ ]: non-standard residue; d: D form. The star is where a group is joined. ξ: configuration not given here. Butanoyl(4-(4-NO2Ph)) = O=C(CCCc1ccc([N+](=O)[O-])cc1)*; DOTA = O=C(O)CN1CCN(CC(=O)O)CCN(CC(=O)*)CCN(CC(=O)O)CC1; ξAla(9-anthryl) = NC(Cc1c2ccccc2cc2ccccc12)C(=O)O; X2 = O=C(NC(CCCCN*)C(=O)O)NC(CC(F)C(=O)O)C(=O)O; X1 = O=C(C1CCC(CN[*:1])CC1)[*:2]; ξK = NCCCCC(N)C(=O)O

Test system: NRG-mice bearing LNCaP tumors
Assay: Biodistribution (and PET/SPECT imaging) in NRG-mice bearing LNCaP tumors
Assay type: in vivo
Conditions: Avg
Experimental: LNCaP cell line was obtained from ATCC (LNCaP clone FGC, CRL-1740). It was established from a metastatic site of left supraclavicular lymph node of human prostatic adenocarcinoma. Cells were cultured in PRMI 1640 medium supplemented with 10% FBS, penicillin (100 U/mL) and streptomycin (100 μg/mL) at 37° C. in a humidified incubator containing 5% CO2. Cells grown to 80-90% confluence were then washed with sterile phosphate-buffered saline (1×PBS pH 7.4) and trypsinization. The collected cells number was counted with a Hausser Scientific (Horsham, PA) Hemacytometer. Approximately 10 million LNCaP cells were inoculated into the left dorsal flank of immunocomprised NRG mice. The tumours were allowed to grow for 4-6 weeks and used for imaging and biodistribution studies when a volume of 200-600 mm^3 was reached.
PET imaging experiments were conducted using Siemens Inveon micro PET/CT scanner. SPECT imaging experiments were conducted using an MILabs micro SPECT/CT scanner. Each tumor bearing mouse was injected 4-6 MBq of ^68Ga or 18.5 MBq of ^177Lu labeled tracer through the tail vein under anesthesia (2% isoflurane in oxygen). The mice were allowed to recover and roam freely in their cage. At pre-defined time point, the mice were sedated again with 2% isoflurane in oxygen inhalation and positioned in the scanner. A 10-min CT scan was conducted first for localization and attenuation correction after segmentation for reconstructing the PET or SPECT images. Then, a 10-min static PET imaging or a one hour (30 min×2 frames) of static SPECT scan was performed to determined uptake in tumor and other organs. The mice were kept warm by a heating pad during acquisition.
For biodistribution studies, the mice were injected with the radiotracer as described above. The mice were anesthetized with 2% isoflurane inhalation, and euthanized by CO2 inhalation. Blood was withdrawn immediately from the heart, and the organs/tissues of interest were collected. The collected organs/tissues were weighed and counted using a Perkin Elmer (Waltham, MA) Wizard2 2480 gamma counter. The uptake in each organ/tissue was normalized to the injected dose (radioactivity) using a standard curve, and expressed as the percentage of the injected dose per gram of tissue (% ID/g).

## O=C([O-])CN1CCN(CC(=O)[O-])CCN(CC(=O)NCCCCC(NC(=O)CNC(=O)CCCc2ccc([N+](=O)[O-])cc2)C(=O)NCC(=O)NCC2CCC(C(=O)NC(Cc3c4ccccc4cc4ccccc34)C(=O)NCCCCC(NC(=O)NC(CC(F)C(=O)O)C(=O)O)C(=O)O)CC2)CCN(CC(=O)[O-])CC1.[68Ga+3] (stereo not shown) [^68Ga-CCZ02025] ({Butanoyl(4-(4-NO2Ph))}-G[ξK](DOTA)G[X1][ξAla(9-anthryl)]-X2)
1 h p.i.
  Biodistribution: Adrenal gland: 5.96 % ID/g
  Biodistribution: Blood: 19.40 % ID/g
  Biodistribution: Bone: 1.01 % ID/g
  Biodistribution: Brain: 0.30 % ID/g
  Biodistribution: Fat: 2.74 % ID/g
  Biodistribution: Heart: 4.13 % ID/g
  Biodistribution: Intestine: 1.93 % ID/g
  Biodistribution: LNCaP tumor: 9.19 % ID/g
  Biodistribution: Liver: 4.07 % ID/g
  Biodistribution: Lungs: 8.79 % ID/g
  Biodistribution: Muscle: 1.48 % ID/g
  Biodistribution: Pancreas: 1.89 % ID/g
  Biodistribution: Salivary gland: 3.24 % ID/g
  Biodistribution: Seminal gland: 2.55 % ID/g
  Biodistribution: Spleen: 1.90 % ID/g
  Biodistribution: Stomach: 0.59 % ID/g
  Biodistribution: Testes: 2.65 % ID/g
  Biodistribution: Thyroid: 4.11 % ID/g
  Biodistribution: Urine: 104.40 % ID/g
  Biodistribution: kidney: 14.01 % ID/g
3 h p.i.
  Biodistribution: Adrenal gland: 4.26 % ID/g
  Biodistribution: Blood: 13.83 % ID/g
  Biodistribution: Bone: 1.27 % ID/g
  Biodistribution: Brain: 0.22 % ID/g
  Biodistribution: Fat: 1.79 % ID/g
  Biodistribution: Heart: 2.86 % ID/g
  Biodistribution: Intestine: 1.12 % ID/g
  Biodistribution: LNCaP tumor: 18.79 % ID/g
  Biodistribution: Liver: 3.21 % ID/g
  Biodistribution: Lungs: 5.21 % ID/g
  Biodistribution: Muscle: 0.95 % ID/g
  Biodistribution: Pancreas: 1.13 % ID/g
  Biodistribution: Salivary gland: 2.47 % ID/g
  Biodistribution: Seminal gland: 1.83 % ID/g
  Biodistribution: Spleen: 1.17 % ID/g
  Biodistribution: Stomach: 0.57 % ID/g
  Biodistribution: Testes: 2.80 % ID/g
  Biodistribution: Thyroid: 2.41 % ID/g
  Biodistribution: Urine: 101.55 % ID/g
  Biodistribution: kidney: 9.90 % ID/g
